According to patent US12322837B2, “Electrochemical reduction of halogenated compounds comprising a haloalkane” (Massachusetts Institute of Technology, priority 2021, dated 2025):
Converted amounts (≈) assume the structure as drawn.

Experiments:
[1] = Ionic conductivity of NO2-Ph-SF5-containing electrolytes; assay type: physicochemical
From the text: Theoretical capacities correspond to 8 e^−per molecule. Capacities increased from 292 to 362 mAh·gsub-stack^−1 as concentration increased from 3 M to 4 M, beyond which further gains were negligible. The maximum gravimetric energy of 1085 Wh·kgsub-stack^−1 was obtained at 4.5 M. Capacity and energy decreased with concentrations exceeding 4.5 M due to diminishing supporting solvent (DMSO, ˜16 wt. % of the catholyte at 5 M), which led to significant decline in ionic conductivity from 6.4 to 0.6 mS·cm^−1 from 0.1 M to 5 M (FIG. 24). Additionally, low DMSO content decreases the ability to solubilize LiF, making electrode passivation effects more severe. Capacities remained constant at ˜362 mAh·gsub-stack^−1 from 0.3-1.0 mA·cm^−2 (0.01 C-0.04 C) and decreased moderately thereafter up to 3 mA·cm^−2 (0.12 C), indicating excellent rate capability.

[2] = Solubility/miscibility of reactants in DMSO or 0.1 M LiClO4/DMSO; assay type: physicochemical; settings: for miscibility with 0.1 M LiClO4/DMSO: even at 50° C.
From the text: To understand the effect of the chain length of the RF group, the discharge profiles of Ph-NO2-C6 (o) vs. Ph-NO2-C8 (o) and Ph-CN-C6 (p) vs. Ph-CN-C8 (p) were compared. As is shown in FIG. 5, up to 11 e- or 15 e- transfer per molecule (calculated based on capacities) can be obtained during discharge for C6 or C8 containing reactants, respectively. […] For example, Ph-CN-C6 (p) is liquid and miscible with DMSO at RT, but its C8 counterpart is solid at RT and is only soluble at elevated temperatures (e.g., 50° C.).

miscibility with 0.1 M LiClO4/DMSO [2]	Compound	solubility / reachable concentration in 0.1 M LiClO4/DMSO ([2]; RT)	other results
–	O=[N+]([O-])c1ccc(S(F)(F)(F)(F)F)cc1 [NO2-Ph-SF5, 4-Nitrophenylsulfur pentafluoride]	–	ionic conductivity of electrolyte ([1]; 0.1 M NO2-Ph-SF5): 6.4 mS·cm^−1; ionic conductivity of electrolyte ([1]; 5 M NO2-Ph-SF5): 0.6 mS·cm^−1
negligible miscibility	FC(F)(F)c1ccccc1C=CC(F)(F)C(F)(F)C(F)(F)C(F)(F)C(F)(F)C(F)(F)F [Ph-CF3—C6 (o)]	–	–
negligible miscibility	FC(F)(F)c1ccc(C=CC(F)(F)C(F)(F)C(F)(F)C(F)(F)C(F)(F)C(F)(F)F)cc1 [Ph-CF3—C6 (p)]	–	–
–	N#Cc1ccc(C=CC(F)(F)C(F)(F)C(F)(F)C(F)(F)C(F)(F)C(F)(F)F)cc1 [Ph-CN-C6 (p)]	–	miscibility with DMSO ([2]; RT): miscible
–	N#Cc1ccc(C=CC(F)(F)C(F)(F)C(F)(F)C(F)(F)C(F)(F)C(F)(F)C(F)(F)C(F)(F)F)cc1 [Ph-CN-C8 (p)]	not soluble	solubility limit in 0.1 M LiClO4/DMSO ([2]; 50° C.): 800 mM (≈ 438 mg/mL)
–	O=[N+]([O-])c1ccccc1C=CC(F)(F)C(F)(F)C(F)(F)C(F)(F)C(F)(F)C(F)(F)C(F)(F)C(F)(F)F [Ph-NO2—C8 (o)]	2000 mM (≈ 1130 mg/mL)	–
